Experimental data published in PubChem BioAssay (NCI).
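Abbreviation: GI50, concentration required for 50% inhibition of growth. The concentration for full growth arrest is given as TGI.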

Experiments:
Experiment in all cases: NCI anticancer screen, dose series, 384-well format
[1] = test system: RXF 393 renal
[2] = test system: SR leukemia
[3] = test system: HCT-116 colon
[4] = test system: HCT-15 colon
[5] = test system: NCI-H23 lung
[6] = test system: IGROV1 ovarian
[7] = test system: SNB-75 CNS
[8] = test system: T-47D breast
[9] = test system: K-562 leukemia
[10] = test system: NCI-H322M lung
[11] = test system: BT-549 breast
[12] = test system: MALME-3M melanoma
[13] = test system: SF-268 CNS
[14] = test system: SNB-19 CNS
[15] = test system: MOLT-4 leukemia
[16] = test system: ACHN renal
[17] = test system: MDA-MB-231 breast
[18] = test system: M14 melanoma
[19] = test system: OVCAR-3 ovarian
[20] = test system: HS 578T breast
[21] = test system: HL-60(TB) leukemia
[22] = test system: DU-145 prostate
[23] = test system: OVCAR-5 ovarian
[24] = test system: UO-31 renal
[25] = test system: U251 glioblastoma
[26] = test system: HOP-62 NSCLC
[27] = test system: LOX IMVI melanoma
[28] = test system: NCI-H522 lung
[29] = test system: NCI/ADR-RES ovarian
[30] = test system: A549 NSCLC
[31] = test system: 786-0 renal
[32] = test system: HOP-92 NSCLC
[33] = test system: SF-539 CNS
[34] = test system: SF-295 CNS
[35] = test system: UACC-62 melanoma
[36] = test system: A498 renal
[37] = test system: SK-MEL-2 melanoma
[38] = test system: OVCAR-8 ovarian
[39] = test system: SN12C renal
[40] = test system: HT29 colon
[41] = test system: MDA-MB-435 melanoma
[42] = test system: SW-620 colon
[43] = test system: CAKI-1 renal
[44] = test system: PC-3 prostate
[45] = test system: TK-10 renal
[46] = test system: CCRF-CEM leukemia
[47] = test system: SK-MEL-28 melanoma
[48] = test system: OVCAR-4 ovarian
[49] = test system: NCI-H226 lung
[50] = test system: SK-OV-3 ovarian
[51] = test system: SK-MEL-5 melanoma
[52] = test system: COLO 205 colon
[53] = test system: MCF7 breast
[54] = test system: UACC-257 melanoma
[55] = test system: RPMI-8226 leukemia
[56] = test system: KM12 colon
[57] = test system: EKVX NSCLC
[58] = test system: HCC-2998 colon
[59] = test system: MDA-MB-468 breast
[60] = test system: NCI-H460 NSCLC

## O=C(c1ccc(F)c(F)c1Nc1ccc(I)cc1F)N1CC(O)([C@@H]2CCCCN2)C1
[1]
  GI50: 0.725 µM
  TGI: 2.58 µM
[2]
  GI50: 1.07 µM
  TGI: 2.33 µM
[3]
  GI50: 0.0703 µM
  TGI: 0.834 µM
[4]
  GI50: 1.25 µM
  TGI: 9.73 µM
[5]
  GI50: 0.0505 µM
  TGI: 0.708 µM
[6]
  GI50: 0.12 µM
  TGI: 4.51 µM
[7]
  GI50: 1.39 µM
  TGI: 6.7 µM
[8]
  GI50: 4.79 µM
  TGI: 12.5 µM
[9]
  GI50: 0.284 µM
  TGI: 1.47 µM
[10]
  GI50: 0.217 µM
  TGI: 6.61 µM
[11]
  GI50: 1.4 µM
  TGI: 9.16 µM
[12]
  GI50: < 0.01 µM
[13]
  GI50: 8.35 µM
  TGI: 20.5 µM
[14]
  GI50: 5.49 µM
  TGI: 18.5 µM
[15]
  GI50: 2.02 µM
  TGI: 4.83 µM
[16]
  GI50: 1.49 µM
  TGI: 12.2 µM
[17]
  GI50: 0.172 µM
  TGI: 1.36 µM
[18]
  GI50: < 0.01 µM
  TGI: 0.0146 µM
[19]
  GI50: 5.55 µM
  TGI: 17.2 µM
[20]
  GI50: 4.74 µM
  TGI: 15.9 µM
[21]
  GI50: 0.0101 µM
  TGI: 0.375 µM
[22]
  GI50: 1.25 µM
  TGI: 15.5 µM
[23]
  GI50: 0.126 µM
  TGI: 7.96 µM
[24]
  GI50: 0.297 µM
  TGI: 3.77 µM
[25]
  GI50: 0.82 µM
  TGI: 8.28 µM
[26]
  GI50: 0.403 µM
  TGI: 13.5 µM
[27]
  TGI: 0.527 µM
[28]
  GI50: 2.6 µM
  TGI: 17.3 µM
[29]
  GI50: 3.42 µM
  TGI: 16.1 µM
[30]
  GI50: 0.0975 µM
  TGI: 2.73 µM
[31]
  GI50: 1.52 µM
  TGI: 5 µM
[32]
  GI50: 0.153 µM
  TGI: 0.599 µM
[33]
  GI50: 0.969 µM
  TGI: 7.01 µM
[34]
  GI50: 6.2 µM
  TGI: 12.2 µM
[35]
  GI50: < 0.01 µM
  TGI: 0.161 µM
[36]
  GI50: 0.472 µM
  TGI: 2.95 µM
[37]
  GI50: 0.0182 µM
  TGI: 0.0529 µM
[38]
  GI50: 3.86 µM
  TGI: 10.5 µM
[39]
  GI50: 0.645 µM
  TGI: 16 µM
[40]
  GI50: 0.0101 µM
  TGI: 4.24 µM
[41]
  GI50: < 0.01 µM
  TGI: 15.8 µM
[42]
  GI50: 0.0417 µM
  TGI: 5.83 µM
[43]
  GI50: 0.565 µM
  TGI: 10.4 µM
[44]
  GI50: 7.65 µM
  TGI: 19.8 µM
[45]
  GI50: 0.956 µM
  TGI: 10.9 µM
[46]
  GI50: 3.35 µM
  TGI: 7.67 µM
[47]
  GI50: < 0.01 µM
  TGI: 0.0163 µM
[48]
  GI50: 2.7 µM
  TGI: 12.4 µM
[49]
  GI50: 0.23 µM
  TGI: 6.32 µM
[50]
  GI50: 5.11 µM
  TGI: 18.6 µM
[51]
  GI50: < 0.01 µM
  TGI: 0.0703 µM
[52]
  GI50: < 0.01 µM
  TGI: 0.0274 µM
[53]
  GI50: 3.55 µM
  TGI: 7.29 µM
[54]
  GI50: < 0.01 µM
  TGI: 0.0268 µM
[55]
  GI50: 1.05 µM
  TGI: 5.22 µM
[56]
  GI50: 0.136 µM
  TGI: 6.91 µM
[57]
  GI50: 1.34 µM
  TGI: 14.2 µM
[58]
  GI50: 0.0102 µM
  TGI: 0.077 µM
[59]
  GI50: 3.89 µM
  TGI: 9.32 µM
[60]
  GI50: 1.27 µM
  TGI: 5.74 µM
